Measurements reported in patent US10073103B1, “Rapid measurement of total vitamin D in blood” (Theranos, Inc., priority 2013, dated 2018).
Where two headings read alike, the source gives them in different places.

Experiments:
[1] = as stated in the manufacturer's product insert, b197 cites literature, cited from earlier work
[2] = test system: anti-25-hydroxy vitamin D antibodies (Ab5H10 and Ab2F4); test: Cross-reactivity test of the present competitive chemiluminescent ELISA in low BSA buffer; type: binding, sheep; conditions: for Cross reactivity as potentially interfering compound (in words): final assay conditions
Experimental: The liquid phase of the assay reaction included the sample (mixed with the sample diluent) and included the anti-vitamin-D antibodies and the alkaline phosphatase (AP) conjugate. As discussed below, in many cases mixtures of two types of anti-vitamin D antibodies were used. For example, in many cases, the anti-vitamin-D antibodies Ab5H10 and Ab2F4 were mixed into the diluted sample (final concentrations 10 ng/mL Ab5H10 and 5 ng/mL Ab2F4), and then the AP conjugate was mixed into the solution that included the sample, the sample diluent, and the anti-vitamin-D antibodies. This liquid mixture was incubated with the capture surface (anti-sheep antibody bound to UltraAvidin™-coated polystyrene).
Vitamin D assay methods using pepsin degradation of vitamin D binding proteins at low pH were then further optimized in subsequent experiments, including experiments performed at an operating temperature of 34° C. […] This sample treatment and assay protocol consisted of a 1:5 dilution of the sample into 10 mg/mL pepsin in 100 mM citrate buffer pH 2.6, followed by a 1:8 dilution into 50 mM TRIS pH 8.0 which brought the pH of the diluted sample to 8.0 and neutralized the pepsin. Then the sheep anti-25-hydroxy vitamin D antibody was added and incubated with the sample for 10 minutes. Following addition of the anti-25-hydroxy vitamin D antibody, the 25-hydroxy vitamin D-AP conjugate was added, resulting in a final sample dilution of 1:50. The mixture was then incubated on the anti-sheep capture surface for 5 minutes, followed by a wash and 5 minute substrate incubation.
1. Sample was diluted 1:5 into 100 mM Citrate buffer pH 2.6 containing 10 mg/mL pepsin and mixed (final pH 3.9) for 5 minutes at 34° C.
2. Treated sample was diluted a further 1:8 into 50 mM TRIS buffer pH 8.0 to permanently deactivate the pepsin, and anti-25-hydroxy vitamin D antibody in a blocking buffer was spiked in and mixed. This mixture was incubated for 10 minutes.
3. The AP-labeled 25-hydroxy vitamin D was added to the sample mixture and then transferred to the capture surface (biotinylated anti-sheep secondary antibody bound to UltraAvidin™-coated polystyrene) and incubated for 5 minutes.
4. The surface was washed six times (1 minute for each wash cycle) with 0.05% Tween20® in 50 mM TBS containing 0.05% sodium azide at pH8.0.
5. The washed capture surface was exposed to enzyme substrate for five minutes and the chemiluminescence was read in an automated luminometer.
Tests were performed in order to determine whether non-target compounds could interfere with the assay results. Such tests, termed “cross-reactivity tests”, measured the change in measured 25-hydroxy vitamin D due to the presence of a non-target substance by comparing the value of 25-hydroxy vitamin D measured by the present methods where a potentially interfering compound was in the sample, as compared to the value of 25-hydroxy vitamin D measured by the present methods in the absence of the potentially interfering compound. Cross reactivity testing was conducted using the final assay conditions in a low BSA buffer matrix (0.03% BSA in TBS). Cross-reactivity was reported in these assays as % recovery=100×([measured vitamin D])/([nominal vitamin D]); [measured vitamin D] is the 25-hydroxy vitamin D concentration measured in the presence of the potentially interfering compound, and [nominal vitamin D] is the 25-hydroxy vitamin D concentration measured in the absence of the potentially interfering compound. […] (Note that an interfering compound would displace labeled 25-hydroxy vitamin D in the competition assays disclosed herein, so that the interfering compound would cause an apparent (erroneous) increase in the measured 25-hydroxy vitamin D.) For comparison, values for 25-hydroxy vitamin D3 (a direct target of the assay, and not a cross-reactant) are presented in the table.

[3] = Reagent stability: lyophilized pepsin versus frozen aliquots, compared by vitamin D results on clinical samples; conditions: 10 mg/mL, reconstituted with 100 mM citrate buffer pH 2.6
Experimental: The stability of pepsin in frozen aliquots of aqueous pepsin solution and of dry, lyophilized pepsin (e.g., a lyophilized powder formed from an aqueous pepsin solution) was measured. Pepsin was lyophilized in containers suitable for use when reconstituted, e.g., in an automated assay device. The pepsin was provided in a solution at a concentration of 10 mg/mL and was lyophilized into the containers to obtain the final reconstituted amount and concentration equal to the concentration and amounts used in the assay methods disclosed herein. The containers of lyophilized reagent were placed into cartridges (arrays including several such containers) and the reagent was reconstituted with 100 mM citrate buffer (pH 2.6). Clinical samples were used for comparison, and the vitamin D results were calculated for both conditions based on the standard curve obtained for frozen pepsin/buffer aliquots.

[4] = as stated in the manufacturer's product insert; cited from earlier work
[5] = test system: antivitamin-D coated microparticles; parameters: concentration or dose not given beside the values; conditions: as stated in the manufacturer's product insert; cited from earlier work
[6] = test system: antibody to 25-hydroxy vitamin D; conditions: as stated in the manufacturer's product insert; cited from earlier work
[7] = test substance 50 ng/mL, OORL = out of range - low, below the detection limit
[8] = test substance 50 ng/mL, low BSA buffer
[9] = test substance 100 ng/mL, OORL = out of range - low, below the detection limit
[10] = test substance 100 ng/mL, low BSA buffer
[11] = test substance 150 ng/mL, OORL = out of range - low, below the detection limit
[12] = test substance 150 ng/mL, low BSA buffer (0.03% BSA in TBS)

Compound | Vitamin D metabolite cross reactivity, IDS ELISA kit [1] [%] | Cross reactivity as potentially interfering compound (in words) ([2]; low BSA buffer) | Conc., ng/mL Mean (measured 25-hydroxy vitamin D) [2, 7] | Signal, RLU Mean [2, 8] [RLU] | Conc., ng/mL Mean (measured 25-hydroxy vitamin D) [2, 9] | Signal, RLU Mean [2, 10] [RLU] | Conc., ng/mL Mean (measured 25-hydroxy vitamin D) [2, 11] | Signal, RLU Mean [2, 12] [RLU] | Vitamin D metabolite cross reactivity, Roche Vitamin D3 (25-OH) [4] | Vitamin D metabolite cross reactivity, Present Methods [2] [%] | Vitamin D metabolite cross reactivity, DiaSorin Liaison 25 OH Vitamin D TOTAL [5] [%] | Vitamin D metabolite cross reactivity, DiaSorin 25-Hydroxyvitamin D 125I RIA [6] [%] | other results
C=C1CCC(O)C/C1=C\C=C1\CCCC2(C)C1CCC2C(C)CCC(O)C(C)(C)O (stereo not drawn) [24,25-Dihydroxy Vitamin D3, 24,25-dihydroxy vitamin D3] | >100 | No cross reactivity | OORL | 25059 | OORL | 23735 | OORL | 22992 |  |  |  |  | 
pepsin: porcine gastric mucosa pepsin (Sigma catalog # P7000) |  |  |  |  |  |  |  |  |  |  |  |  | Stability: results with lyophilized reagent versus (thawed) frozen aliquot [3]: no significant differences
C=C1CC[C@H](O)C/C1=C/C=C1\CCC[C@]2(C)[C@@H]([C@H](C)CCCC(C)C)CC[C@@H]12 [Cholecalciferol (Vitamin D3), cholecalciferol] | <0.01 | No cross reactivity | OORL | 31046 | OORL | 30864 | OORL | 31607 | <1% | <0.01 | <1 | 0.8 | 
C=C1/C(=C\C=C2/CCC[C@]3(C)[C@@H]([C@H](C)CCCC(C)(C)O)CC[C@@H]23)C[C@@H](O)C[C@@H]1O [1α,25-Dihydroxy Vitamin D3, 1α,25-dihydroxy vitamin D3] |  | Some cross reactivity | 36.5 ng/mL | 7804 | 60.6 ng/mL | 3642 | 107.1 ng/mL | 2352 | up to 100% | 70 | 17 | 11 | % Recovery ([2]; test substance 50 ng/mL): 73%; % Recovery ([2]; test substance 100 ng/mL): 61%; % Recovery ([2]; test substance 150 ng/mL): 71%
C=C1CC[C@H](O)C/C1=C/C=C1\CCC[C@]2(C)[C@@H]([C@H](C)/C=C/[C@H](C)C(C)C)CC[C@@H]12 [Ergocalciferol (Vitamin D2), ergocalciferol] | <0.3 | No cross reactivity | OORL | 30040 | OORL | 27040 | OORL | 30935 | <1% | <0.01 | <1 | 0.8 | 
C=C1CC[C@H](O)C/C1=C/C=C1\CCC[C@]2(C)[C@@H]([C@H](C)CCCC(C)(C)O)CC[C@@H]12 [25-Hydroxy vitamin D3, 25-hydroxy vitamin D3] | 100 |  | 55.5 ng/mL | 4044 | 76.5 ng/mL | 2941 | 104.5 ng/mL | 2432 | 100% | 100 | 100 | 100 | % Recovery ([2]; test substance 10 ng/mL): 110%; Conc., ng/mL Mean (measured 25-hydroxy vitamin D) ([2]; test substance 10 ng/mL): 11.0 ng/mL; Signal, RLU Mean ([2]; test substance 10 ng/mL, low BSA buffer): 20071 RLU; % Recovery ([2]; test substance 25 ng/mL): 83%; Conc., ng/mL Mean (measured 25-hydroxy vitamin D) ([2]; test substance 25 ng/mL): 20.8 ng/mL; Signal, RLU Mean ([2]; test substance 25 ng/mL, low BSA buffer): 14076 RLU; % Recovery ([2]; test substance 50 ng/mL): 111%; % Recovery ([2]; test substance 100 ng/mL): 77%; % Recovery ([2]; test substance 150 ng/mL): 70%
C=C1/C(=C\C=C2/CCC[C@]3(C)[C@@H]([C@H](C)/C=C/[C@H](C)C(C)(C)O)CC[C@@H]23)C[C@@H](O)C[C@@H]1O [1.25(OH)2 D2, 1,25-dihydroxy vitamin D2] |  |  |  |  |  |  |  |  |  |  | 40 | 11 | 
C=C1CC[C@H](O)C/C1=C/C=C1\CCC[C@]2(C)[C@@H]([C@H](C)/C=C/[C@H](C)C(C)(C)O)CC[C@@H]12 [25(OH) D2, 25-hydroxy vitamin D2] | 75 |  |  |  |  |  |  |  | <10% | 110 | 104 | 100 | Vitamin D metabolite cross reactivity, IDS ELISA kit ([1]; listed as 25-hydroxy Vitamin D2): 75%
